Reference: US20030059511A1, “Sweetener compositions and uses thereof” (AJINOMOTO CO., INC., priority 1999, published 2003)

How the values were obtained:
Format in all cases: in vivo, human
[1] = Measurement of the magnification of sweetness intensity in aqueous solution (sensory evaluation against sucrose solutions); conditions: for Amount equivalent to PSE 10% / intensity of sweetness, times that of sucrose (magnification of sweetness intensity): aqueous solution; for intensity of sweetness, times that of sucrose (magnification of sweetness intensity): about PSE 10%
Method: (§1) An aqueous solution was prepared by diluting derivative 2 to be PSE 10% concentration (15.5 mg/1000 ml=10/6500 g/100 ml), assuming that the intensity of sweetness of derivative 2 was 6500 times that of sucrose. Separately, aqueous sucrose solutions having sucrose concentrations of (a)6.94%, (b)8.33%, (c)10%, (d)12%, and (e)14.4% were prepared. The sensory evaluation was performed by determining which sucrose solution was closest to the solution of derivative 2 in the sweetness intensity. The result of calculation of the average of points of 20 panelists was 2.25 point.
(§2) The intensity of sweetness of the solution of derivative 2 was 8.75% according to the following equation: (10.0−8.33)×0.25+8.33=8.75. Accordingly, the intense sweetness of derivative 2 was 5600 (=8.75/0.00155) times that of sucrose. According to the same experiment, the intensity of sweetness of derivative 1 was 22600 times that of sucrose. Furthermore, the magnification of sweetness intensity of other derivatives (3 to 9) can be determined by the same method.
as §2, with “intensity of” for “intense”
as §1, with “intense” for “intensity of”
The sweetness intensity of the solution of derivative 2 was 8.75% according to the following equation: (10.0−8.33)×0.25+8.33=8.75. Therefore, the magnification of sweetness intensity of derivative 2 was 5600 (=8.75/0.00155) times that of sucrose. When the same experiment was performed, the magnification of sweetness intensity of derivative 1 was 22600 times that of sucrose.

[2] = Taste characteristics in a cola drink (9 items, similarity index vs cola drink containing 10% sucrose); conditions: non-carbonated cola drink, PSE 10%, vs cola drink with 10% sucrose; smaller = closer to sucrose; 8 panelists
Method: The following experiments were performed in the same way as that of Example 2. Instead of aqueous solution, the cola drink of each of derivatives 1 to 9 having a sweetness level equivalent to that of PSE 10% was prepared, and compared with the cola drink containing 10% sucrose. The evaluation method and so on were same as that of Example 2.
When carbon dioxide is blown in the cola drink, the carbonated cola drink is prepared, however, the taste of the cola drink can be compared more easily in that without carbon dioxide. Thus the sensory evaluation of non-carbonated cola drink was performed.
The composition of the cola drink employed was same as that of Example 1.
(§3) The similarity indexes were calculated as those of aqueous solutions. The smaller the similarity index becomes, the better the taste balances, and the closer the taste is to the taste characteristics (quality) of sucrose. The total taste becomes preferable. The similarity indexes of each derivatives are shown as follows. […]
The following experiments were conducted in the same way as that of Example 15. Instead of aqueous solution, the cola drink of each of derivatives 1 to 9 having a sweetness level equivalent to that of PSE 10% was prepared, and compared with the cola drink containing 10% sucrose. All of the evaluation method and so on were same as those of Example 15.
When carbon dioxide is blown in the cola drink, the carbonated cola drink is prepared, however, the taste of the cola drink can be compared more easily in that without carbon dioxide. Thus the non-carbonated cola drink was organoleptically evaluated.
The composition of the cola drink employed was same as that of Example 14.
as §3, with “(quality)of” for “(quality) of”, “each of the” for “each”

[3] = Equations for calculating sweetness intensity and values calculated from them; conditions: for concentration of the derivative of PSE 0.5%: from the cola drink equation of Example 17; for X when Y=6.3%: from the equation of the respective derivative
Source text: For example, when preparing a solution having a intensity of sweetness equivalent to that of 10% sucrose, wherein 80% of the 10% of intensity of sweetness is from the sweetener component A and the residual 20% is from the sweetener component B, the sweetness ratio is A:B=8:2. When the sweetening magnification relative to sucrose varies depending on the composition and the concentration of the sweetener component is varied even if it is a same sweetener component (in this case, an exponential curve can be prepared and used for calculation), the objective weight of the sweetener component can be calculated. For example, if the equation for converting sweetness intensity (the exponential curve) component A is Y=aX^b, and the equation for converting sweetness intensity (the exponential curve)of component B is Y=cX^d, the weight ratio of the components A and B in the ratio A:B=8:2, can be determined using the following calculation, where Y is a concentration equivalent to that of sucrose (PSE %), and X is the sweetener component concentration (g/100 ml):
(§4) Equations for calculating sweetness intensity in the cola drink (pH 2.8, 20° C.) are as follows, wherein Y denotes the concentration equivalent to that of sucrose (g/100 ml) and X denotes the concentration of the sweetener (g/100 ml), respectively.
With regard to Acesulfame K, the magnification of sweetness intensity was determined according to the following equation for calculating sweetness intensity.
[Y: concentration equivalent to that of sucrose (g/100ml); X: concentration of Acesulfame K (g/100 ml)]
By using the equation for calculating sweetness intensity in the cola drink (refer to Example 4) and the equation for calculating sweetness intensity of Aspartame (refer to the monthly Journal “Food Chemical” August, page 35, 1997), the necessary amounts of those were calculated. In case of Aspartame, the values at 20° C., pH2.8 were used.
The equation for calculating sweetness intensity of derivative 1 in the aqueous solution is as follows.
Where, the calculation of the sweetness was made by using the equation for calculating sweetness intensity of derivative 4 Y=58775X^1.04. When Y=6.3%, X=0.00015 g/100 ml, When Y=5.1%, X=0.00012 g/100 ml.
as §4, with “Examples for equations” for “Equations”, “(pH2.8,” for “(pH 2.8,”, “follows, and another equations can be prepared in the same manner,” for “follows,”

Compound	Amount equivalent to PSE 10% [1]	intensity of sweetness, times that of sucrose (magnification of sweetness intensity) [1]	Similarity index [2]	concentration of the derivative of PSE 0.5% [3]	X when Y=6.3% [3]	further results
COC(=O)[C@H](Cc1ccccc1)NC(=O)[C@H](CC(=O)O)NCCCc1ccc(OC)c(O)c1 [Derivative 1, N-[N-[3-(3-hydroxy-4-methoxyphenyl)propyl] -L-α-aspartyl]-L-phenylalanine 1-methyl ester]	4.5 mg/1000 ml	22600 times	0.78	0.0000434 g/dL		magnification of the sweetness intensity at PSE 5% ([3]; calculated, block ice of Example 12): 25600 times; X, concentration of the sweetener when Y=1 ([3]; cola drink, pH 2.8, 20° C.): 0.000074 g/100 ml; X, concentration of the sweetener when Y=2 ([3]; cola drink, pH 2.8, 20° C.): 0.00013 g/100 ml; X, concentration of the sweetener when Y=5 ([3]; cola drink, pH 2.8, 20° C.): 0.00026 g/100 ml; X, concentration of the sweetener when Y=8 ([3]; cola drink, pH 2.8, 20° C.): 0.00037 g/100 ml; X, concentration of the sweetener when Y=9.5 ([3]; cola drink, pH 2.8, 20° C.): 0.000425 g/100 ml
COC(=O)[C@H](Cc1ccccc1)NC(=O)[C@H](CC(=O)O)NCCCc1ccc(OC)cc1 [Derivative 2, N-[N-[3-(4-methoxyphenyl)propyl]-L-α-aspartyl]-L-phenylalanine 1-methyl ester]	17.9 mg/1000 ml	5600 times	0.80	0.0000597 g/dL		intensity of sweetness of the solution ([1]; aqueous solution 15.5 mg/1000 ml, sucrose-equivalent concentration): 8.75%; average of points of 20 panelists ([1]; derivative 2 aqueous solution 15.5 mg/1000 ml, closest of sucrose solutions (a)6.94% to (e)14.4%): 2.25 point; magnification of sweetness intensity at PSE 4% ([3]; calculated, sweetener for tabletop use): 6000 times
COC(=O)[C@H](Cc1ccccc1)NC(=O)[C@H](CC(=O)O)NCCC(C)(C)c1ccc(O)c(C)c1 [Derivative 4, N-[N-[3-(3-methyl-4-hydroxyphenyl)-3-methylbutyl]-L-α-aspartyl]-L-phenylalanine 1-methyl ester]	2.3 mg/1000 ml		1.04		0.00015 g/100 ml	X when Y=5.1% ([3]; from the equation of derivative 4): 0.00012 g/100 ml
COC(=O)[C@H](Cc1ccccc1)NC(=O)[C@H](CC(=O)O)NCCC(C)(C)c1ccc(O)cc1 [Derivative 6, N-[N-[3-(4-hydroxyphenyl)-3-methylbutyl]-L-α-aspartyl]-L-phenylalanine 1-methyl ester]	6.7 mg/1000 ml		0.81			X when Y=9.6% ([3]; from the equation of derivative 6): 0.000685 g/100 ml
COC(=O)[C@H](Cc1ccccc1)NC(=O)[C@H](CC(=O)O)NCCCc1ccc(O)c(C)c1 [Derivative 8, N-[N-[3-(3-methyl-4-hydroxyphenyl)propyl]-L-α-aspartyl]-L-phenylalanine 1-methyl ester]	5.5 mg/1000 ml		1.00		0.00036 g/100 ml	X when Y=8.9% ([3]; from the equation of derivative 8): 0.00055 g/100 ml
